Experimental data published in ChEMBL document CHEMBL5725668, “Cyclobutane containing carboxylic acid GPR120 modulators” (2018).

Assay: GPR120 pERK AlphaScreen SureFire Assay: The human and mouse GPR120-mediated intracellular phosphorylated ERK assays were established using CHOA12 cells stably transfected with the short form of human or mouse GPR120 receptor. Cells were cultured in growth medium consisting of F-12 media (Invitrogen Cat. #11765) with 5% Charcoal/Dextran FBS (Invitrogen Cat. #12676-029), 500 μg/mL GENETICIN® (Life Technologies Cat. #10131-027) and 250 μg/mL Zeocin (Invitrogen Cat. #R250-01). Cells were cryo preserved at a concentration of 2×10^7 cells/mL, in 90% Charcoal/Dextran FBS and 10% DMSO, and frozen in liquid nitrogen at a low passage number.For the pERK assay, 2×10^7 cells/mL cryopreserved human and mouse cells were thawed rapidly in a 37° C. water bath and added to a T-225 flask containing 50 mL growth medium. The flasks were placed in a tissue culture incubator overnight (37° C., 5% CO2). The next day, cells were harvested with trypsin (Gibco Cat. #25300-054), resuspended in serum-containing growth medium and counted using a Cellometer and volume adjusted to a concentration of 0.6×10^6 cells/mL. Cells were plated into 384-well clear bottom tissue culture plates (BD Cat. #353962) at 50 μL/well, for a density of 30,000 cells/well using a MULTIDROP® and incubated for 16-18 hours (overnight) at 37° C. with 5% CO2. The next day, cells were serum starved in 30 μL of F-12 media without any serum or antibiotics for 2 hours at 37° C.Test compounds were 3-fold, 11-point serially diluted in DMSO in a REMP assay plate (Matrix Cat. #4307) by Tecan and 5 μL was transferred into an ECHO source plate (Labcyte Cat. #LC-0200). Cells were then stimulated with 50 nL of compound dilutions using ECHO liquid handler for 7 minutes at 37° C. Compounds ranged from final assay concentrations of 33.33 μM to 0.56 nM.The media was then dumped and cells lysed with 20 μL of 1× Lysis buffer from the AlphaScreen SureFire Phospho-ERK 1/2 Kit (Perkin Elmer Cat. #6760617M). The lysis buffer was diluted 5-fold with water before use. The plate was agitated on a shaker for 10 minutes after which 2 μL was transferred into a 384-well white proxiplate (Perkin Elmer Cat. #6008289). The SureFire assay reagent mix was prepared by mixing 60 parts Reaction Buffer, 10 parts Activation Buffer, 1 part Donor Beads, 1 part Acceptor Beads (Perkin Elmer Cat. #TGRES10K). 3.5 μL/well of this reagent mix was manually added to the proxiplate with a multichannel pipettor. Plates were spun down at 1000 rpm for 2 minutes, followed by light-protected incubation at room temperature for 2 hours. The plates were read on the Alpha-technology compatible Envision multilabel plate reader using AlphaScreen protocol according to manufacturer's specifications. […]
Format: cell-based
Work on `CC(C)Oc1cc(-c2ccc([C@H]3C[C@@H](OCC(=O)O)C3)cc2)c(F)cn1` yielded an EC50 of 2.07 µM. `O=C(O)CO[C@H]1C[C@@H](c2ccc(-c3ccccc3Oc3ccccc3)cc2)C1` showed an EC50 of 1.46 µM. In the case of `O=C(O)CO[C@H]1C[C@@H](c2ccc(-c3cc(Oc4ccc(F)cc4)cc(F)c3F)cc2)C1`, the EC50 is reported as 0.59 µM. Compound `Cc1nc(C)c(-c2ccc([C@H]3C[C@@H](OCC(=O)O)C3)cc2)s1` has an EC50 of 3.46 µM.
